The source of these data is PubChem BioAssay (NCI).

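Five compound concentrations were applied to cells in 96-well plates for 48 hours; endpoints were derived by simple linear interpolation of the resulting dose-response curve. Abbreviation: GI50, concentration required for 50% inhibition of growth. The concentration for full growth arrest is given as TGI.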 Where only a bound is given, the exact number is not on record here.

Assay in all cases: inhibition of tumour cell growth, NCI panel, 48 h
Assay [1] has as its system SK-MEL-2 melanoma.
For assay [2], the system named is RXF 393 renal.
Assay [3] concerns SK-OV-3 ovarian.
For assay [4], the system named is SF-539 CNS.
Assay [5] deals with UACC-62 melanoma.
Assay [6] has as its system NCI-H522 lung.
The test system of assay [7] is 786-0 renal.
Assay [8] relates to A549 NSCLC.
Assay [9] concerns MALME-3M melanoma.
Assay [10] relates to ACHN renal.

As for `CC1(C)N=C(N)N=C(N)N1c1ccc(OCC(=O)Nc2ccccc2)c(Cl)c1`, the GI50 is above 93.9 µM in assay [1]; above 87.1 µM in [2]; above 60.9 µM in assay [3]; 2.1 µM in assay [4]; 0.569 µM in assay [5]; 3.01 µM in assay [6]. Further, the GI50 was 11.1 µM in assay [7], 0.0916 µM in assay [8], above 71.4 µM in assay [9] and 62.9 µM in assay [10]. In addition, the TGI in assay [1], in assay [2], in assay [3], in [4], in assay [5] and in assay [6] was above 100 µM in each case. Also, the TGI in assay [7] is above 100 µM; in assay [8], above 71.8 µM; in assay [9], above 100 µM; in assay [10], above 100 µM.
With `CC1=C(C(=O)Nc2ccccc2C)C(/C=C/c2ccccc2)C(C(=O)Nc2ccccc2C)=C(C)N1`, the TGI in assay [1], in assay [2], in [3], in [4], in [5] and in assay [6] was above 100 µM in each case. For the same compound, the TGI in assay [7], in assay [8], in assay [9] and in [10] was above 100 µM in each case.
`C=CCO/N=C/c1cc(NC(=S)c2ccoc2C)ccc1Cl`: the TGI in assay [1] is 28 µM; in [2], 65.8 µM; in assay [3] it was 36.2 µM; in [4], 44.6 µM; in assay [5] it was 35.5 µM; in [6] it was 23.7 µM. In addition, the TGI is above 100 µM in assay [7], above 100 µM in [8], 31.3 µM in assay [9] and 19.4 µM in assay [10].
For `CCOC(=O)c1ccc(N[C@@H]2c3cc4c(cc3C(C3=CC(=O)C(=O)C(OC)=C3)[C@H]3C(=O)OCC32)OCO4)cc1` (stereo not given in full), the TGI in assay [1] was found to be 6.08 µM; in assay [2], 16.8 µM; in assay [3], 6.77 µM; in [4], 4.56 µM; in assay [5], 7.69 µM; in [6], 18.8 µM. The TGI was determined as 4.09 µM in [7], 5.67 µM in assay [8], 11.2 µM in assay [9] and 3.86 µM in [10].
